What was measured:
[1] = target: T1, Protein arginine N-methyltransferase 5 (Homo sapiens, UniProt O14744); test: Inhibition of PRMT5 methyltransferase activity in MTAP knockout human HCT-116 cells assessed as inhibition of PRMT5- mediated SDMA modification level incubated for 96 hrs by Western blot analysis; format: cell-based
[2] = Efflux ratio of apparent permeability across basolateral to apical side over apical to basolateral side in dog MDCKII-MDR1 cells at 2 uM incubated for 2.5 hrs by LC-MS/MS analysis; format: ADME, cell-based, Canis lupus familiaris, MDCK-MDR1; conditions: MDCK-MDR1
HCT-116 [3] = test: Antiproliferative activity against human HCT-116 cells expressing wild type MTAP assessed as reduction in cell viability incubated for 5 days followed by replacement with fresh medium containing compound and measured after 5 days by CTG assay; format: functional, cell-based
[4] = target: T1, Protein arginine N-methyltransferase 5; test: Inhibition of PRMT5 methyltransferase activity in human HCT-116 cells expressing wild type MTAP assessed as inhibition of PRMT5- mediated SDMA modification level incubated for 96 hrs by Western blot analysis; format: cell-based
HCT-116 [5] = test: Antiproliferative activity against MTAP knockout human HCT-116 cells assessed as reduction in cell viability incubated for 5 days followed by replacement with fresh medium containing compound and measured after 5 days by CTG assay; format: functional, cell-based
[6] = Apparent permeability across apical to basolateral side in dog MDCKII-MDR1 cells at 2 uM incubated for 2.5 hrs by LC-MS/MS analysis; format: ADME, cell-based, Canis lupus familiaris, MDCK-MDR1; conditions: MDCK-MDR1
[7] = Intrinsic clearance in mouse hepatocytes; format: ADME, cell-based, Hepatocyte; conditions: read-out: CLH
[8] = Intrinsic clearance in human hepatocytes; format: ADME, cell-based, Hepatocyte; conditions: read-out: CLH
[9] = target: T1, Protein arginine N-methyltransferase 5
[10] = target: T1, Protein arginine N-methyltransferase 5; remark: listed apart in the source
Homo sapiens = species on record: Homo sapiens; test: Selectivity ratio of IC50 for inhibition of human PRMT5 co-complexed with MEP50 in absence of MTA to IC50 for inhibition of MTA-bound human PRMT5 co-complexed with MEP50
PRMT5/MEP50 complex = PRMT5/MEP50 complex (Homo sapiens, UniProt O14744); test: Inhibition of streptavidin sensor chip immobilized biotinylated human PRMT5/MEP50 assessed as dissociation constant by SPR analysis; format: protein-complex assay
Sequence of PRMT5/MEP50 complex (O14744 whole entry): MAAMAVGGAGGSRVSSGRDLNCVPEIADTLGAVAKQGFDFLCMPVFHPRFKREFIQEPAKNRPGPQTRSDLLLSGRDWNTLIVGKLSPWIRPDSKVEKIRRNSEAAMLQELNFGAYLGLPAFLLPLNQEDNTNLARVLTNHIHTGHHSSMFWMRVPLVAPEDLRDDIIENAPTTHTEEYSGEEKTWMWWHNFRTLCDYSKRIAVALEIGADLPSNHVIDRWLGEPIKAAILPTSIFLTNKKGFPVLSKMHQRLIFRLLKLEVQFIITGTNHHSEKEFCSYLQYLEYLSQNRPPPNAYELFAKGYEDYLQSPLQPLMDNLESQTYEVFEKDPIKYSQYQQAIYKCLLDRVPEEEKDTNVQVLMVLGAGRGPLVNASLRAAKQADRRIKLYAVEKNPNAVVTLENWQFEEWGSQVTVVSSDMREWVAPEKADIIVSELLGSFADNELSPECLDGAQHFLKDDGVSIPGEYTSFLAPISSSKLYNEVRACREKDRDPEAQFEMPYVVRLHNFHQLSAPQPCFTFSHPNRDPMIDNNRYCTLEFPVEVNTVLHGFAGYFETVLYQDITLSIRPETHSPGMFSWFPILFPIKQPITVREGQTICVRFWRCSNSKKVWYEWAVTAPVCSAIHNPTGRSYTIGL
Sequence of PRMT5/MEP50 complex (Q9BQA1 whole entry, further chain): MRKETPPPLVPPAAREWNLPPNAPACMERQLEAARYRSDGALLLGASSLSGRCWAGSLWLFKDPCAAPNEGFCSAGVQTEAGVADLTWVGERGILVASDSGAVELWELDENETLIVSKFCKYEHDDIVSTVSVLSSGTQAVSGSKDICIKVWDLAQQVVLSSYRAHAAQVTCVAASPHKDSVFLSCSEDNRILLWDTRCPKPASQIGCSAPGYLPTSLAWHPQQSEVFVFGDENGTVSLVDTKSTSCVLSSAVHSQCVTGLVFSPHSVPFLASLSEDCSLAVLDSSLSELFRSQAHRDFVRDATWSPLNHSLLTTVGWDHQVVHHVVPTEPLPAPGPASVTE

[11] = Total clearance in CD-1 mouse at 3 mg/kg, iv measured upto 24 hrs by LC-MS/MS analysis; format: ADME, organism-based; conditions: in vivo
[12] = Half life in CD-1 mouse at 3 mg/kg, iv measured upto 24 hrs by LC-MS/MS analysis; format: ADME, organism-based; conditions: in vivo
[13] = Volume of distribution at steady state in CD-1 mouse at 3 mg/kg, iv measured upto 24 hrs by LC-MS/MS analysis; format: ADME, organism-based; conditions: in vivo, read-out: Vdss
[14] = Oral bioavailability in CD-1 mouse at 30 mg/kg administered via gavage measured upto 24 hrs by LC-MS/MS analysis; format: ADME, organism-based; conditions: in vivo

T1 sequence (O14744 whole entry): as the sequence (O14744 whole entry) above

Compound	IC50 [1] [nM]	efflux ratio at 2.5 h, 2 µM [2]	IC50 (HCT-116 [3]) [nM]	IC50 [4] [nM]	IC50 (HCT-116 [5]) [nM]	Papp A→B at 2.5 h, 2 µM [6] [×10⁻⁶ cm/s]	CLint scaled [7] [mL/min/kg]	CLint scaled [8] [mL/min/kg]	IC50 [9] [nM]	IC50 [10] [nM]	Ratio IC50 (Homo sapiens)	Kd (PRMT5/MEP50 complex) [nM]	clearance [11] [mL/min/kg]	half-life [12] [h]	Vd [13] [L/kg]	bioavailability [14] [%]
Cn1ncc(-c2ccc3c(=O)[nH]nc(CN)c3c2)c1-c1c(F)cccc1C#N	322	42	7440	> 10000	761	0.3	171	18	4000	–	–	–	–	–	–	–
CC(C)n1cc(-c2ccc3c(=O)[nH]nc(CN)c3c2)cn1	–	20.1	–	–	–	1.31	–	–	670	11400	17	–	–	–	–	–
NCc1n[nH]c(=O)c2ccc(-c3cnn(CCO)c3)cc12	–	0.9	–	–	–	0.9	–	–	–	11200	16	–	–	–	–	–
CC(=O)N1CCC(Nc2cc(C(=O)NC[C@H](O)CN3CCc4ccccc4C3)ncn2)CC1 [PEMRAMETOSTAT]	–	–	237	–	189	–	–	–	–	–	–	–	–	–	–	–
NCc1n[nH]c(=O)c2ccc(-c3cncs3)cc12	–	0.6	–	–	–	14.6	–	–	–	–	–	–	–	–	–	–
Cc1c(-c2ccc3c(=O)[nH]nc(CN)c3c2)cnn1C	–	0.6	–	–	–	4.9	–	–	50	1290	26	–	–	–	–	–
CCc1cccc(-c2c(-c3ccc4c(=O)[nH]nc(CN)c4c3)cnn2C)c1C#N	79	35	> 10000	3210	175	0.3	523	18	2000	–	–	–	–	–	–	–
Cn1ncc(-c2ccc3c(=O)[nH]nc(CN)c3c2)c1-c1ccc2ccccc2c1C#N	11	99	1980	1210	49	0.4	340	< 18	–	–	–	–	–	–	–	–
Cn1ncc(-c2ccc3c(=O)[nH]nc(CN)c3c2)c1-c1c(Cl)ccc(OC2CC2)c1C#N	11	131	1650	> 1000	91	0.3	332	< 18	–	–	–	–	–	–	–	–
Cn1ncc(-c2ccc3c(=O)[nH]nc(CN)c3c2)c1-c1sc2ccccc2c1C#N	5	58	5800	> 1000	58	0.6	280	41	–	–	–	–	–	–	–	–
C[S@@+](CC[C@H](N)C(=O)[O-])C[C@H]1O[C@@H](n2cnc3c(N)ncnc32)[C@H](O)[C@@H]1O	–	–	–	–	–	–	–	–	–	–	–	550	–	–	–	–
NCc1n[nH]c(=O)c2ccc(-c3cccnn3)cc12	–	0.9	–	–	–	1.1	–	–	30100	> 100000	–	–	–	–	–	–
COc1cccc(-c2c(-c3ccc4c(=O)[nH]nc(CN)c4c3)cnn2C)c1C#N	62	20	> 10000	> 10000	851	0.6	137	< 18	1000	–	–	–	–	–	–	–
CSC[C@H]1O[C@@H](n2cnc3c(N)ncnc32)[C@H](O)[C@@H]1O [METHYLTHIOADENOSINE]	–	–	–	–	–	–	–	–	–	–	–	661	–	–	–	–
Cn1ncc(-c2ccc3c(=O)[nH]nc(CN)c3c2)c1-c1cccc(Cl)c1C#N	62	35	> 10000	8810	544	0.7	232	< 18	2000	–	–	–	121	1.3	6.6	12
